DBAASP
In brackets after ≈: the same amount, converted by molar mass. Each block holds one compound with its values, some of them ahead of it.

Columns and labels:
Test in all cases: ≥ marks a high value that may be exact or a test limit, other limits are often not marked, values filed in µg/mL are converted to µM
[1] = tested on: Escherichia coli D31
[2] = tested on: Pseudomonas aeruginosa ATCC 10145
[3] = tested on: Salmonella enterica subsp. enterica serovar Typhimurium ATCC 700931
[4] = tested on: Staphylococcus aureus ATCC 27660
[5] = tested on: Staphylococcus epidermidis ATCC 14990
[6] = tested on: Candida albicans NCYC 1467
[7] = tested on: Enterococcus faecalis NCTC 12697
[8] = tested on: Escherichia coli NCTC 10418
[9] = tested on: Klebsiella pneumoniae ATCC 43816
[10] = tested on: Pseudomonas aeruginosa ATCC 27853
[11] = tested on: Staphylococcus aureus ATCC 12493
[12] = tested on: Staphylococcus aureus NCTC 10788
[13] = tested on: Staphylococcus aureus
[14] = tested on: Cronobacter muytjensii ATCC 51329
[15] = tested on: Cronobacter sakazakii ATCC BAA-894
[16] = tested on: Cronobacter sakazakii DPC 6440
[17] = tested on: Cronobacter sakazakii DSM 4485
[18] = tested on: Escherichia coli NCIMB 11843
[19] = tested on: Klebsiella pneumoniae NCIMB 13218
[20] = tested on: Pseudomonas fluorescens NCIMB 9046
[21] = tested on: Salmonella enterica subsp. enterica serovar Typhimurium LT2
[22] = tested on: Staphylococcus aureus NCTC 8325-4
[23] = tested on: Staphylococcus aureus Newman
[24] = tested on: Staphylococcus aureus RF122
[25] = tested on: Staphylococcus aureus RN4220
[26] = tested on: Staphylococcus aureus SA113
[27] = tested on: Acinetobacter baumannii ATCC 19606
[28] = tested on: Escherichia coli BW25113 ΔsbmA
[29] = tested on: Escherichia coli BW25113
[30] = tested on: Escherichia coli
[31] = tested on: Klebsiella pneumoniae ATCC 700603
[32] = tested on: Staphylococcus aureus ATCC 25923
[33] = tested on: Candida albicans NCTC 1467
[34] = tested on: Staphylococcus aureus NCTC 12493
[35] = tested on: Candida albicans ATCC 10231
[36] = tested on: Escherichia coli KCTC 2223
[37] = tested on: Pseudomonas aeruginosa H636
[38] = tested on: Salmonella typhimurium KCTC 2370
[39] = tested on: Staphylococcus aureus ATCC 15752
[40] = tested on: Escherichia coli ATCC 25922
[41] = tested on: Klebsiella pneumoniae ATCC 13883
[42] = tested on: Staphylococcus aureus USA 300 LAC

Structure (SMILES): CC[C@H](C)[C@H](NC(=O)[C@H](CO)NC(=O)[C@H](CCCCN)NC(=O)[C@H](Cc1c[nH]c2ccccc12)NC(=O)[C@H](CC(C)C)NC(=O)[C@H](C)N)C(=O)N[C@@H](CC(C)C)C(=O)N[C@@H](CCCCN)C(=O)N[C@@H](CC(N)=O)C(=O)N[C@H](C(=O)NCC(=O)N[C@@H](CCCCN)C(=O)N[C@@H](C)C(=O)N[C@@H](C)C(=O)NCC(=O)N[C@@H](CCCCN)C(=O)N[C@@H](C)C(=O)N[C@H](C(=O)N[C@@H](CC(C)C)C(=O)N[C@@H](CC(N)=O)C(=O)N[C@@H](C)C(=O)N[C@H](C(=O)N[C@H](C(=O)N[C@@H](CC(=O)O)C(=O)N[C@@H](CCSC)C(=O)N[C@H](C(=O)N[C@@H](CC(N)=O)C(=O)N[C@@H](CCC(N)=O)C(N)=O)C(C)C)[C@@H](C)O)C(C)C)C(C)C)C(C)C [ALWKSILKNVGKAAGKAVLNAVTDMVNQ]
MIC [6]: 2 µM (≈ 5.88 µg/mL)
MIC [7]: ≥ 32 µM
MIC [8]: 4 µM (≈ 11.8 µg/mL)
MIC [9]: 8 µM (≈ 23.5 µg/mL)
MIC [10]: 4 µM (≈ 11.8 µg/mL)
MIC [11]: 2 µM (≈ 5.88 µg/mL)
MIC [12]: 2 µM (≈ 5.88 µg/mL)
MIC [13]: 4 µM (≈ 11.8 µg/mL)

Structure (SMILES): CC[C@H](C)[C@H](N)C(=O)N[C@@H](C)C(=O)N[C@@H](C)C(=O)N[C@@H](CCC(N)=O)C(=O)NCC(=O)N[C@@H](CC(C)C)C(=O)N1CCC[C@H]1C(=O)N[C@@H](CCC(N)=O)C(=O)N[C@@H](CCC(=O)O)C(=O)O [IAAQGLPQE]
MIC [14]: ≥ 2500 µM
MIC [15]: ≥ 2500 µM
MIC [16]: ≥ 312 µM
MIC [17]: ≥ 2500 µM
MIC [18]: ≥ 1250 µM
MIC [19]: ≥ 1250 µM
MIC [20]: ≥ 1250 µM
MIC [21]: ≥ 1250 µM
MIC [22]: ≥ 1250 µM
MIC [23]: ≥ 1250 µM
MIC [24]: ≥ 1250 µM
MIC [25]: ≥ 1250 µM
MIC [26]: ≥ 1250 µM

Structure (SMILES): CSCC[C@H](NC(=O)[C@H](CCC(=O)O)NC(=O)[C@H](CCCCN)NC(=O)[C@H](CC(C)C)NC(=O)[C@H](CCCCN)NC(=O)CNC(=O)[C@H](Cc1c[nH]c2ccccc12)NC(=O)[C@H](CC(C)C)NC(=O)[C@@H](N)CO)C(=O)N[C@@H](CC(C)C)C(=O)N[C@@H](C)C(=O)N[C@@H](CCCCN)C(=O)N[C@@H](C)C(=O)NCC(=O)N[C@@H](CCCCN)C(=O)N[C@@H](C)C(=O)N[C@H](C(=O)N[C@@H](C)C(=O)N[C@@H](CC(N)=O)C(=O)N[C@@H](C)C(=O)N[C@H](C(=O)N[C@@H](CC(N)=O)C(=O)NCC(=O)N[C@@H](CC(C)C)C(=O)N[C@@H](C)C(=O)N[C@@H](CC(N)=O)C(=O)N[C@@H](CCC(N)=O)C(N)=O)C(C)C)C(C)C [SLWGKLKEMLAKAGKAVANAVNGLANQ]
MIC [33]: 16 µM (≈ 44.5 µg/mL)
MIC [7]: 8 µM (≈ 22.3 µg/mL)
MIC [8]: 8 µM (≈ 22.3 µg/mL)
MIC [9]: 8 µM (≈ 22.3 µg/mL)
MIC [10]: 32 µM (≈ 89 µg/mL)
MIC [12]: 8 µM (≈ 22.3 µg/mL)
MIC [34]: 8 µM (≈ 22.3 µg/mL)

The next lines start with the values.

MIC [1]: 1.88 µM (≈ 4.27 µg/mL)
MIC [2]: 1.88 µM (≈ 4.27 µg/mL)
MIC [3]: 1.88 µM (≈ 4.27 µg/mL)
MIC [4]: 1.88 µM (≈ 4.27 µg/mL)
MIC [5]: 0.94 µM (≈ 2.13 µg/mL)
Structure (SMILES): C[C@H](N)C(=O)N[C@@H](Cc1ccccc1)C(=O)N[C@@H](Cc1c[nH]c2ccccc12)C(=O)N[C@@H](CCCCN)C(=O)N[C@@H](CCCCN)C(=O)N[C@@H](Cc1ccccc1)C(=O)N[C@@H](Cc1ccccc1)C(=O)N[C@@H](CCCCN)C(=O)N[C@@H](CCCCN)C(=O)N[C@@H](Cc1ccccc1)C(=O)N[C@@H](Cc1ccccc1)C(=O)N[C@@H](CCCCN)C(=O)N[C@@H](CO)C(=O)N[C@@H](C)C(=O)N[C@@H](CCCCN)C(=O)N[C@@H](CCCCN)C(=O)N[C@@H](Cc1ccccc1)C(=O)NCC(=O)O [AFWKKFFKKFFKSAKKFG]

MIC [27]: 2 µM (≈ 4.82 µg/mL)
MIC [28]: 4 µM (≈ 9.64 µg/mL)
MIC [29]: 4 µM (≈ 9.64 µg/mL)
MIC [30]: 1.41 µM (≈ 3.41 µg/mL)
MIC [31]: 64 µM (≈ 154 µg/mL)
MIC [10]: 32 µM (≈ 77.1 µg/mL)
MIC [32]: 32 µM (≈ 77.1 µg/mL)
Structure (SMILES): CC[C@H](C)[C@H](NC(=O)[C@@H]1CCCN1C(=O)[C@H](CCCN=C(N)N)NC(=O)[C@H](CCCN=C(N)N)NC(=O)[C@H](Cc1c[nH]c2ccccc12)NC(=O)[C@@H](N)CCCN=C(N)N)C(=O)N[C@@H](CCCN=C(N)N)C(=O)N[C@@H](CCCN=C(N)N)C(=O)N[C@@H](CCCN=C(N)N)C(=O)N1CCC[C@H]1C(=O)N[C@H](C(=O)N[C@@H](CCCN=C(N)N)C(=O)N1CCC[C@H]1C(=O)N1CCC[C@H]1C(=O)N[C@@H](Cc1ccccc1)C(=O)N[C@@H](Cc1ccc(O)cc1)C(=O)N[C@@H](Cc1c[nH]c2ccccc12)C(=O)O)[C@@H](C)CC [RWRRPIRRRPIRPPFYW]

MIC [35]: > 32 µM
MIC [36]: ≥ 32 µM
MIC [37]: ≥ 32 µM
MIC [38]: ≥ 32 µM
MIC [39]: ≥ 32 µM
Structure (SMILES): CC(C)C[C@H](NC(=O)[C@H](CCCCN)NC(=O)[C@H](CCCN=C(N)N)NC(=O)[C@H](CCC(N)=O)NC(=O)[C@@H](N)CO)C(=O)N[C@@H](C)C(=O)N[C@@H](C)C(=O)N[C@@H](CCCCN)C(=O)N[C@@H](CC(C)C)C(=O)N[C@H](C(=O)N[C@@H](CO)C(=O)N[C@@H](CCCCN)C(=O)O)[C@@H](C)O [SQRKLAAKLTSK]

MIC [40]: 8.8 µM (≈ 11.2 µg/mL)
MIC [41]: 12.5 µM (≈ 15.9 µg/mL)
MIC [42]: 3.1 µM (≈ 3.94 µg/mL)
Structure (SMILES): CC[C@H](C)[C@H](NC(=O)[C@H](CCCCN)NC(=O)[C@H](CCCN=C(N)N)NC(=O)[C@H](CC(C)C)NC(=O)[C@H](Cc1c[nH]c2ccccc12)NC(=O)[C@H](Cc1c[nH]c2ccccc12)NC(=O)[C@@H](N)Cc1c[nH]c2ccccc12)C(=O)N[C@@H](Cc1c[nH]c2ccccc12)C(N)=O [WWWLRKIW]
